Measured values: US7585859B2, “PDE4B inhibitors and uses therefor” (Plexxikon, Inc., priority 2004, dated 2009)
pIC50: −log10 of the molar value. Read-outs that look alike come from different tables or passages of the source. One block for each compound: values may come before it.

Columns and labels:
[1] = target: T1, PDE4B: The catalytic domain of human PDE4B from S152-S528 (Homo sapiens, UniProt Q07343); assay: PDE4 IC50 determination by Scintillation Proximity Assay, PDE4B; type: biochemical
T1 construct: His6 (N); thrombin cleavage site (N); made in house; host or cells: E. coli
T1 sequence (Q07343 with tags, fused parts or gaps): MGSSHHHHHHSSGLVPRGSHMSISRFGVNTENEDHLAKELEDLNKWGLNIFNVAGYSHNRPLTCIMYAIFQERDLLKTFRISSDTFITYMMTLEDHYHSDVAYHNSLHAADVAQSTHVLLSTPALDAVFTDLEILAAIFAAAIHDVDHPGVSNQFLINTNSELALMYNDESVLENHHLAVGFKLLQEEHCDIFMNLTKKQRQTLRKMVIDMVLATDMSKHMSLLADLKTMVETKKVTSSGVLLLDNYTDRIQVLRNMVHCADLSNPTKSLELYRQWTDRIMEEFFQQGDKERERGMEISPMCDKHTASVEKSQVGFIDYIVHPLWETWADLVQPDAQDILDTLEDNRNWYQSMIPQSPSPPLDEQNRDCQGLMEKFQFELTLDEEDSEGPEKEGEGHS
Procedure: (§1) IC50s were determined by Scintillation Proximity Assay (SPA). The principle of the assay is based on the fact that cAMP, the PDE4 substrate, binds weakly to Yittrium Silicate SPA beads, whereas AMP, the product of PDE4 hydrolysis binds strongly. Thus, the extent of PDE4 hydrolysis of a sample of [^3H]cAMP can be measured because only the
(§2) [^3H]AMP produced by PDE4 hydrolysis will bind to the SPA beads and produce a scintillation signal.
(§3) PDE4 enzymes used for IC50 assays were:
(§4) Enzyme was stored in 50% glycerol at −20°.
(§5) In addition to the compound dilutions, each assay plate contained control wells with 1 μl of DMSO (to define 0% enzyme inhibition) or 1 μl of 200 μM roflumilast (to define 100% enzyme inhibition). […] Next, 10 μl of PDE4 enzyme in assay buffer was added and the plates were shaken for 30 s. at 1000 rpm to start the cAMP hydrolysis reaction. The concentrations of enzyme used were: PDE4B, 80 ng/ml; PDE4D, 4 ng/ml; PDE4B2, 2.5 μl of 50% glycerol stock/ml; PDE4D5 0.083 μl of 50% glycerol stock/ml. Assay plates were covered and incubated for 30 min. at 30°. […] The assay plates were covered with clear plastic film, centrifuged for 1 min. at 1000 RPM to settle the SPA beads, and counted using a Wallac TriLux scintillation counter. IC50's were calculated from the raw assay data by non-linear regression curve fitting using the Assay Explorer software package from MDL.

PDE4D = target: T2, PDE4D (Homo sapiens, UniProt Q08499); assay: PDE4 IC50 determination by Scintillation Proximity Assay, PDE4D; type: biochemical
T2 construct: PDE4D: The catalytic domain of human PDE4B from S3 16-V692; His6 (N); thrombin cleavage site (N); made in house; host or cells: E. coli
T2 sequence (Q08499 380-756): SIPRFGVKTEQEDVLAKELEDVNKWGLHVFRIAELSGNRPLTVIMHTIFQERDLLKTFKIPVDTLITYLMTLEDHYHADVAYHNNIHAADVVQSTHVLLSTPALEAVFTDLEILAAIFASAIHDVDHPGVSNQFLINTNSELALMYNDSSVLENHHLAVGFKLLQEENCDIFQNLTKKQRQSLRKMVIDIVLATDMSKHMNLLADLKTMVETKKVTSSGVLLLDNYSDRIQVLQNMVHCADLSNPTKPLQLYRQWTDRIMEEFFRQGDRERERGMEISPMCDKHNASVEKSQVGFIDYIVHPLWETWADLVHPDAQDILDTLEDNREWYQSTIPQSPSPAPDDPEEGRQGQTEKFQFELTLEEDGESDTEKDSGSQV
Procedure: as §1, §2, §3, §4, §5

[2] = Table 3A, Formula III compounds, read-out: IC50 PDE4B
[3] = Table 3A, Formula III compounds, read-out: IC50 PDE4D
[4] = Table 1B, Formula I compounds, read-out: IC50 PDE4B
[5] = Table 1B, Formula I compounds, read-out: IC50 PDE4D
[6] = first part of Table 2B (2-1 to 2-22), read-out: IC 50 vs. indicated assay PDE4B
[7] = first part of Table 2B (2-1 to 2-22), read-out: IC 50 vs. indicated assay PDE4D
[8] = second part of Table 2B (2-23 to 2-103), column 3, column is PDE4B in first part, read-out: IC 50 vs. indicated assay h TNFα
[9] = second part of Table 2B (2-23 to 2-103), column 5, column is PDE4D in first part, read-out: IC 50 vs. indicated assay h TNFα

Structure (SMILES): O=S(=O)(Nc1cccc2cccnc12)c1ccc(-c2ccon2)s1 [Compound 3-23, 5-Isoxazol-3-yl-thiophene-2-sulfonic acid quinolin-8-ylamide]
- pIC50 [1, 2]: < 5.00
- pIC50 (PDE4D; [3]): < 5.00

Structure (SMILES): Cc1ccc2cccnc2c1NS(=O)(=O)c1cc(Cl)c(Cl)s1 [Compound 3-8, 4,5-Dichloro-thiophene-2-sulfonic acid (7-methyl-quinolin-8-yl)-amide]
- pIC50 [1, 2]: < 5.00
- pIC50 (PDE4D; [3]): < 5.00

Structure (SMILES): CC(C)CNc1nc(N)c(C(=O)c2cc(-c3ccc(Cl)c(Cl)c3)no2)s1 [Compound 2-15, (4-Amino-2-isobutylamino-thiazol-5-yl)-[3-(3,4-dichloro-phenyl)-isoxazol-5-yl]-methanone]
- pIC50 [1, 6]: > 5.00
- pIC50 (PDE4D; [7]): > 5.00

Structure (SMILES): COc1cc(NS(=O)(=O)c2cccs2)c2ncccc2c1 [Compound 3-13, Thiophene-2-sulfonic acid (6-methoxy-quinolin-8-yl)-amide]
- pIC50 [1, 2]: < 5.00
- pIC50 (PDE4D; [3]): < 5.00

Structure (SMILES): O=S(=O)(Nc1cccc2cccnc12)c1cc(Cl)c(Cl)s1 [Compound 3-10, 4,5-Dichloro-thiophene-2-sulfonic acid quinolin-8-ylamide]
- pIC50 [1, 2]: < 5.00
- pIC50 (PDE4D; [3]): < 5.00

Structure (SMILES): CCOC(=O)c1cc(C(=O)c2sc(NC3CC3)nc2N)on1 [Compound 2-5, 5-(4-Amino-2-cyclopropylamino-thiazole-5-carbonyl)-isoxazole-3-carboxylic acid ethyl ester]
- pIC50 [1, 6]: > 5.00
- pIC50 (PDE4D; [7]): > 5.00

Structure (SMILES): Nc1nc(Nc2c(Cl)cccc2Cl)sc1C(=O)c1ccc(OC(F)F)cc1 [Compound 2-42, [4-Amino-2-(2,6-dichloro-phenylamino)-thiazol-5-yl]-(4-difluoromethoxy-phenyl)-methanone]
- pIC50 [1, 8]: > 5.00
- pIC50 (PDE4D; [9]): > 5.00

Structure (SMILES): O=S(=O)(Nc1cccc2cccnc12)c1ccc(Cl)s1 [Compound 3-7, 5-Chloro-thiophene-2-sulfonic acid quinolin-8-ylamide]
- pIC50 [1, 2]: < 5.00
- pIC50 (PDE4D; [3]): < 5.00

Structure (SMILES): COc1cc(NS(=O)(=O)c2ccc(-c3ccccn3)s2)c2ncccc2c1 [Compound 3-31, 5-Pyridin-2-yl-thiophene-2-sulfonic acid (6-methoxy-quinolin-8-yl)-amide]
- pIC50 [1, 2]: > 5.00
- pIC50 (PDE4D; [3]): < 5.00

Structure (SMILES): O=S(=O)(c1ccc(Br)s1)N(c1cccc2cccnc12)S(=O)(=O)c1ccc(Br)s1 [Compound 3-42]
- pIC50 [1, 2]: < 5.00
- pIC50 (PDE4D; [3]): < 5.00

Structure (SMILES): COC(=O)C(CCSC)Nc1sc(C(=O)c2cc(OC)ccc2OC)c(N)c1C#N (stereo not shown) [Compound 1-95, 2-[4-Amino-3-cyano-5-(2,5-dimethoxy-benzoyl)-thiophen-2-ylamino]-4-methylsulfanyl-butyric acid methyl ester]
- pIC50 [1, 4]: > 5.00
- pIC50 (PDE4D; [5]): < 5.00

Structure (SMILES): Cc1sc(-c2ccccc2)cc1C(=O)c1sc(NC2CCCC2)nc1N [Compound 2-20, (4-Amino-2-cyclopentylamino-thiazol-5-yl)-(2-methyl-5-phenyl-thiophen-3-yl)-methanone]
- pIC50 [1, 6]: > 5.00
- pIC50 (PDE4D; [7]): > 5.00

Structure (SMILES): CCOC(=O)c1cc(C(=O)c2sc(NC3CCCC3)nc2N)on1 [Compound 2-4, 5-(4-Amino-2-cyclopentylamino-thiazole-5-carbonyl)-isoxazole-3-carboxylic acid ethyl ester]
- pIC50 [1, 6]: > 5.00
- pIC50 (PDE4D; [7]): > 5.00

Structure (SMILES): Nc1nc(Nc2ccccc2F)sc1C(=O)c1cccc(Cl)c1 [Compound 2-50, [4-Amino-2-(2-fluoro-phenylamino)-thiazol-5-yl]-(3-chloro-phenyl)-methanone]
- pIC50 [1, 8]: > 5.00
- pIC50 (PDE4D; [9]): > 5.00

Structure (SMILES): Nc1nc(NC2CCCC2)sc1C(=O)c1ccc(-c2ccccn2)s1 [Compound 2-17, (4-Amino-2-cyclopentylamino-thiazol-5-yl)-(5-pyridin-2-yl-thiophen-2-yl)-methanone]
- pIC50 [1, 6]: > 5.00
- pIC50 (PDE4D; [7]): > 5.00

More lines, now with the values ahead:

- pIC50 [1, 4]: > 5.00
- pIC50 (PDE4D; [5]): > 5.00
Structure (SMILES): COc1ccc(CNc2sc(C(=O)c3ccccc3Cl)c(N)c2C#N)cc1OC [Compound 1-113, 4-Amino-5-(2-chloro-benzoyl)-2-(3,4-dimethoxy-benzylamino)-thiophene-3-carbonitrile]

- pIC50 [1, 4]: > 5.00
- pIC50 (PDE4D; [5]): > 5.00
Structure (SMILES): CCc1ccccc1Nc1sc(C(=O)c2cnn(-c3ccccc3)c2C)c(N)c1C#N [Compound 1-58, 4-Amino-2-(2-ethyl-phenylamino)-5-(5-methyl-1-phenyl-1H-pyrazole-4-carbonyl)-thiophene-3-carbonitrile]

- pIC50 [1, 4]: > 5.00
- pIC50 (PDE4D; [5]): > 5.00
Structure (SMILES): COc1ccc(CNc2sc(C(=O)c3cnn(-c4ccccc4)c3C)c(N)c2C#N)cc1OC [Compound 1-54, 4-Amino-2-(3,4-dimethoxy-benzylamino)-5-(5-methyl-1-phenyl-1H-pyrazole-4-carbonyl)-thiophene-3-carbonitrile]

- pIC50 [1, 8]: > 5.00
- pIC50 (PDE4D; [9]): > 5.00
Structure (SMILES): COc1ccc(C(=O)c2sc(Nc3ccccc3)nc2N)cc1OC [Compound 2-31, (4-Amino-2-phenylamino-thiazol-5-yl)-(3,4-dimethoxy-phenyl)-methanone]

- pIC50 [1, 4]: > 5.00
- pIC50 (PDE4D; [5]): > 5.00
Structure (SMILES): Cc1onc(-c2ccccc2)c1C(=O)c1sc(Nc2ccccc2F)c(C#N)c1N [Compound 1-128, 4-Amino-2-(2-fluoro-phenylamino)-5-(5-methyl-3-phenyl-isoxazole-4-carbonyl)-thiophene-3-carbonitrile]

- pIC50 [1, 4]: > 5.00
- pIC50 (PDE4D; [5]): > 5.00
Structure (SMILES): N#Cc1c(NC2CCOC2=O)sc(C(=O)c2csc3ccccc23)c1N (stereo not shown) [Compound 1-159, 4-Amino-5-(benzo[b]thiophene-3-carbonyl)-2-(2-oxo-tetrahydro-furan-3-ylamino)-thiophene-3-carbonitrile]

- pIC50 [1, 4]: > 5.00
- pIC50 (PDE4D; [5]): > 5.00
Structure (SMILES): COC(=O)C(CCSC)Nc1sc(C(=O)c2coc3ccccc23)c(N)c1C#N (stereo not shown) [Compound 1-107, 2-[4-Amino-5-(benzofuran-3-carbonyl)-3-cyano-thiophen-2-ylamino]-4-methylsulfanyl-butyric acid methyl ester]

- pIC50 [1, 8]: > 5.00
- pIC50 (PDE4D; [9]): < 5.00
Structure (SMILES): Nc1nc(Nc2ccc(Oc3ccccc3)cc2)sc1C(=O)c1cccc(C(F)(F)F)c1 [Compound 2-57, [4-Amino-2-(4-phenoxy-phenylamino)-thiazol-5-yl]-(3-trifluoromethyl-phenyl)-methanone]

- pIC50 [1, 8]: > 5.00
- pIC50 (PDE4D; [9]): < 5.00
Structure (SMILES): Nc1nc(Nc2ccccc2)sc1C(=O)C1CC1 [Compound 2-95, (4-Amino-2-phenylamino-thiazol-5-yl)-cyclopropyl-methanone]

- pIC50 [1, 4]: > 5.00
- pIC50 (PDE4D; [5]): > 5.00
Structure (SMILES): N#Cc1c(Nc2cccc([N+](=O)[O-])c2)sc(C(=O)c2ccccc2)c1N [Compound 1-170, 4-Amino-5-benzoyl-2-(3-nitro-phenylamino)-thiophene-3-carbonitrile]

- pIC50 [1, 8]: > 5.00
- pIC50 (PDE4D; [9]): > 5.00
Structure (SMILES): COc1cccc(C(=O)c2sc(Nc3ccc(Oc4ccccc4)cc3)nc2N)c1 [Compound 2-65, [4-Amino-2-(4-phenoxy-phenylamino)-thiazol-5-yl]-(3-methoxy-phenyl)-methanone]

- pIC50 [1, 8]: > 5.00
- pIC50 (PDE4D; [9]): > 5.00
Structure (SMILES): Nc1nc(Nc2ccc(Cl)cc2)sc1C(=O)c1ccc(Br)cc1 [Compound 2-27, [4-Amino-2-(4-chloro-phenylamino)-thiazol-5-yl]-(4-bromo-phenyl)-methanone]

- pIC50 [1, 8]: > 5.00
- pIC50 (PDE4D; [9]): > 5.00
Structure (SMILES): COc1ccc(C(=O)c2sc(Nc3cccnc3)nc2N)cc1 [Compound 2-72, [4-Amino-2-(pyridin-3-ylamino)-thiazol-5-yl]-(4-methoxy-phenyl)-methanone]

- pIC50 [1, 8]: > 5.00
- pIC50 (PDE4D; [9]): > 5.00
Structure (SMILES): Nc1nc(Nc2ccccc2F)sc1C(=O)C1CCCC1 [Compound 2-98, [4-Amino-2-(2-fluoro-phenylamino)-thiazol-5-yl]-cyclopentyl-methanone]

- pIC50 [1, 8]: > 5.00
- pIC50 (PDE4D; [9]): < 5.00
Structure (SMILES): Nc1nc(Nc2ccc(Oc3ccccc3)cc2)sc1C(=O)c1ccccc1Cl [Compound 2-66, [4-Amino-2-(4-phenoxy-phenylamino)-thiazol-5-yl]-(2-chloro-phenyl)-methanone]

- pIC50 [1, 8]: > 5.00
- pIC50 (PDE4D; [9]): > 5.00
Structure (SMILES): Nc1nc(Nc2ccccc2Cl)sc1C(=O)c1ccccc1 [Compound 2-29, [4-Amino-2-(2-chloro-phenylamino)-thiazol-5-yl]-phenyl-methanone]

- pIC50 [1, 4]: > 5.00
- pIC50 (PDE4D; [5]): > 5.00
Structure (SMILES): N#Cc1c(Nc2ccc(Oc3ccccc3)cc2)sc(C(=O)C2CC2)c1N [Compound 1-184, 4-Amino-5-cyclopropanecarbonyl-2-(4-phenoxy-phenylamino)-thiophene-3-carbonitrile]
